Assay results: patent publication US20080009418A1, “Selective Inhibitors” (Alchemia LTD., priority 2004, published 2008)

Experiments:
Mouse urotensin (mUR2) = target: T1, Mouse urotensin (mUR2) (Mus musculus, UniProt Q8VIH9); experiment: Radioligand binding, mouse urotensin mUR2 membranes, FlashPlate, [125I]-Urotensin II; settings: compound at 10 μM, [125I]-Urotensin II
T1 construct: purchased Perkin Elmer Biosignal
T1 sequence (Q8VIH9 1-385): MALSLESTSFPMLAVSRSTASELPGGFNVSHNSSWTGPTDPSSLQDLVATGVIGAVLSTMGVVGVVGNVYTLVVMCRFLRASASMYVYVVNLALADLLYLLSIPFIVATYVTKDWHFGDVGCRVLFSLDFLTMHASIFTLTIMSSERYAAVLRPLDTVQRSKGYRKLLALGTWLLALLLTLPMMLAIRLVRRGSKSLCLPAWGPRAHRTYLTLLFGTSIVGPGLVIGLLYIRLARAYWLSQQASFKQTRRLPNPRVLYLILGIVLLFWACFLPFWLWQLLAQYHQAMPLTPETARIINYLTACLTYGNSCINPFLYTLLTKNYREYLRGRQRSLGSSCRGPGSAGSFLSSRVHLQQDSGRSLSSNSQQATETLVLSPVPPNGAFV
In short: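 Cloned mouse urotensin (mUR2) receptor membranes from Perkin Elmer Biosignal were immobilized in FlashPlate microplates using a proprietary coating. Each well got 19.5 μl buffer, then 0.5 μl of DMSO, reference ligand, or compound. Adding 5 μl of [125I]-Urotensin II, diluted to 5× final concentration in binding buffer, started binding. Plates were sealed with TopSeal-A and incubated 1 hour at room temperature in the dark. Wells were counted for 30 seconds each on a TopCount after a 60-second delay, and percentage inhibition was calculated.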

Human κ-Opioid (KOP) = target: T2, Human κ-Opioid (KOP) (Homo sapiens, UniProt P41145); experiment: Radioligand binding, human κ-opioid (KOP) membranes, filtration, [3H]-Diprenorphine; settings: compound at 10 μM, [3H]-Diprenorphine
T2 construct: purchased Perkin Elmer Biosignal
T2 sequence (P41145 whole entry): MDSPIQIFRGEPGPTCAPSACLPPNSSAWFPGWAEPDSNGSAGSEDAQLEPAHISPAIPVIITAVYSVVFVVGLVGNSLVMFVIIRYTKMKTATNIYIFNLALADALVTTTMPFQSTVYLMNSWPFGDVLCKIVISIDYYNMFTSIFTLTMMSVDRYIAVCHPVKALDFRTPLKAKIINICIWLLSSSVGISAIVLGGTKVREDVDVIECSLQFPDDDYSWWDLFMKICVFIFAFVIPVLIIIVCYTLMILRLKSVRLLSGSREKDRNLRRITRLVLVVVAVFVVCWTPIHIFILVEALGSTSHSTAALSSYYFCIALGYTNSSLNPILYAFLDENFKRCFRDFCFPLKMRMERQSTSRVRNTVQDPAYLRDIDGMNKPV
In short: (§1)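 Percent inhibition of radioligand binding measured on recombinant human membranes: NK1 with [125I]-Substance P, KOP with [3H]-Diprenorphine. Incubation 1 h at room temperature, then harvest onto 0.3% PEI-soaked filters, cold Tris-HCl pH 7.4 washes and scintillation counting; non-specific binding from reference ligand wells.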

Human δ-opioid (DOP) = target: T3, Human δ-opioid (DOP) (Homo sapiens, UniProt P41143); experiment: Radioligand binding, human δ-opioid (DOP) membranes, FlashPlate, [3H]-Bremazocine; settings: compound at 10 μM, [3H]-Bremazocine
T3 construct: purchased Perkin Elmer Biosignal
T3 sequence (P41143 whole entry): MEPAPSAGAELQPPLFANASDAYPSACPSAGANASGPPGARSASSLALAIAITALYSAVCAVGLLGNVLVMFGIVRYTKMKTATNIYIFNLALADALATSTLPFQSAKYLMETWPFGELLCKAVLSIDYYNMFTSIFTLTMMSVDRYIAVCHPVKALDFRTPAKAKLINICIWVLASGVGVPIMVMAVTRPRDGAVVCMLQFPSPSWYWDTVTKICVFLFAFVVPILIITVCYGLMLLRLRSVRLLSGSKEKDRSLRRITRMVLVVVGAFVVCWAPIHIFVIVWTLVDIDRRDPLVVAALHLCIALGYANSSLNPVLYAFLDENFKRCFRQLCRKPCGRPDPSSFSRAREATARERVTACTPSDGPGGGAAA
In short: (§2)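 Cloned human receptor membranes were coated onto FlashPlate wells and incubated with radioligand and compound (added from a 0.5 mM DMSO daughter plate) for 1 hour at room temperature in the dark. Scintillation counting gave percent inhibition, with DMSO defining total and reference ligand defining non-specific binding.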

Human μ-opioid (MOP) = target: T4, Human μ-opioid (MOP) (Homo sapiens, UniProt P35372); experiment: Radioligand binding, human μ-opioid (MOP) membranes, FlashPlate, [3H]-Naloxone; settings: compound at 10 μM, [3H]-Naloxone
T4 construct: purchased Perkin Elmer Biosignal
T4 sequence (P35372 whole entry): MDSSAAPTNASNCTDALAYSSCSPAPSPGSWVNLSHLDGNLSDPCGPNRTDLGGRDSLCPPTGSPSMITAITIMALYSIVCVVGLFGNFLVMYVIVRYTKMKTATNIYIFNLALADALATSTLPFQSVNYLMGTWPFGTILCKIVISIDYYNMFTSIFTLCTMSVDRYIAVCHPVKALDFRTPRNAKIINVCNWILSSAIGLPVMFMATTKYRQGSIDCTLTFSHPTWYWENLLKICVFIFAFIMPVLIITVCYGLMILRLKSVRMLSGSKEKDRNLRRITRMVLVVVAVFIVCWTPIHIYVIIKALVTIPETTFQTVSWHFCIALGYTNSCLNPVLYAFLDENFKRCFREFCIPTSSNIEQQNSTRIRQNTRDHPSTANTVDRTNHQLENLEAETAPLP
In short: as §2

[1] = target: T5, Human neuropeptide Y (NPY-Y1) (Homo sapiens, UniProt P25929); experiment: Radioligand binding, human neuropeptide Y NPY-Y1 membranes, FlashPlate, [125I]-PYY; settings: compound at 10 μM, [125I]-PYY
T5 construct: purchased Perkin Elmer Biosignal
T5 sequence (P25929 1-384): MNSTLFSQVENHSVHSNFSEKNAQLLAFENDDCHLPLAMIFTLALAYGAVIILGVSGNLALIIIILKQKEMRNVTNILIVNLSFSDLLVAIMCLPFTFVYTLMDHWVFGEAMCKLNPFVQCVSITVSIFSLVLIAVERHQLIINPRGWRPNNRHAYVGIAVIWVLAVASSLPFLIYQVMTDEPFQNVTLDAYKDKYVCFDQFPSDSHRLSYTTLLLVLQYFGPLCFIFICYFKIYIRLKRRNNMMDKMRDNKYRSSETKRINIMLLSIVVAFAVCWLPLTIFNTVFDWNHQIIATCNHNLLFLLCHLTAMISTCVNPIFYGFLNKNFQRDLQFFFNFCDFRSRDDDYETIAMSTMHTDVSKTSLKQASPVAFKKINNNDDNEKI
In short: as §2

Human Melanocortin (MC4) = target: T6, Human Melanocortin (MC4) (Homo sapiens, UniProt P32245); experiment: Radioligand binding, human melanocortin MC4 membranes, FlashPlate, [125I]-NDP-αMSH; settings: compound at 10 μM, [125I]-NDP-αMSH
T6 construct: purchased Perkin Elmer Biosignal
T6 sequence (P32245 whole entry): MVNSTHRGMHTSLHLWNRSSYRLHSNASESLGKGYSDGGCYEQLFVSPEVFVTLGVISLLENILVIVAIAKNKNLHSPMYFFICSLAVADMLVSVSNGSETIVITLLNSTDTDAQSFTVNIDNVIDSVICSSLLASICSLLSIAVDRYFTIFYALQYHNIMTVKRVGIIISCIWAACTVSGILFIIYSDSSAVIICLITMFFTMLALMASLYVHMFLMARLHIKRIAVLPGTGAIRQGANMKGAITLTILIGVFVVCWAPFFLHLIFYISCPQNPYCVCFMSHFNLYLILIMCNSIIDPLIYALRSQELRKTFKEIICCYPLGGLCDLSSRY
In short: as §2

Human opioid (ORL1) = target: T7, Human opioid (ORL1) (Homo sapiens, UniProt P41146); experiment: Radioligand binding, human opioid ORL1 membranes, FlashPlate, [125I]-Nociceptin; settings: compound at 10 μM, [125I]-Nociceptin
T7 construct: purchased Perkin Elmer Biosignal
T7 sequence (P41146 whole entry): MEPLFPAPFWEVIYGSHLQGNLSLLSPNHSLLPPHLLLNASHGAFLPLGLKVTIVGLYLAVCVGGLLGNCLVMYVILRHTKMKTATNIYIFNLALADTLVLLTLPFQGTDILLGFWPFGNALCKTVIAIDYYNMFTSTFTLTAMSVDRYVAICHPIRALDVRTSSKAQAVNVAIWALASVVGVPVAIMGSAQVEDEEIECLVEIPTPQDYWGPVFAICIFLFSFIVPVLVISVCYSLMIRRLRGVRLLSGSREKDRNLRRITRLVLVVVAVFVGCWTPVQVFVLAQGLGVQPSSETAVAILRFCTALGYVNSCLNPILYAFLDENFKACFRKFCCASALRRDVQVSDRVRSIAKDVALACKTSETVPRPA
In short: as §2

Human Melanocortin (MC3) = target: T8, Human Melanocortin (MC3) (Homo sapiens, UniProt P41968); experiment: Radioligand binding, human melanocortin MC3 membranes, FlashPlate, [125I]-NDP-αMSH; settings: compound at 10 μM, [125I]-NDP-αMSH
T8 construct: purchased Perkin Elmer Biosignal
T8 sequence (P41968 whole entry): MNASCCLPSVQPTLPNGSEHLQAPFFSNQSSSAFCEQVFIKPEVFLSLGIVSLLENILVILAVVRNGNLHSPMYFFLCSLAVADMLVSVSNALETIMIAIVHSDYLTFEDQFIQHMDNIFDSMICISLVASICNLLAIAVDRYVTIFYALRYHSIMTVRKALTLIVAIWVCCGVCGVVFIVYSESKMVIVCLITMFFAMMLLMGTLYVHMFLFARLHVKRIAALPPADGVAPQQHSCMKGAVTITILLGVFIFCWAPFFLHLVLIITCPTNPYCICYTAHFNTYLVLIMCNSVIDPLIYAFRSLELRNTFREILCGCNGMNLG
In short: as §2

Human neurokinin (NK1) = target: T9, Human neurokinin (NK1) (Homo sapiens, UniProt P25103); experiment: Radioligand binding, human neurokinin NK1 membranes, filtration, [125I]-Substance P; settings: compound at 10 μM, [125I]-Substance P
T9 construct: purchased Perkin Elmer Biosignal
T9 sequence (P25103 whole entry): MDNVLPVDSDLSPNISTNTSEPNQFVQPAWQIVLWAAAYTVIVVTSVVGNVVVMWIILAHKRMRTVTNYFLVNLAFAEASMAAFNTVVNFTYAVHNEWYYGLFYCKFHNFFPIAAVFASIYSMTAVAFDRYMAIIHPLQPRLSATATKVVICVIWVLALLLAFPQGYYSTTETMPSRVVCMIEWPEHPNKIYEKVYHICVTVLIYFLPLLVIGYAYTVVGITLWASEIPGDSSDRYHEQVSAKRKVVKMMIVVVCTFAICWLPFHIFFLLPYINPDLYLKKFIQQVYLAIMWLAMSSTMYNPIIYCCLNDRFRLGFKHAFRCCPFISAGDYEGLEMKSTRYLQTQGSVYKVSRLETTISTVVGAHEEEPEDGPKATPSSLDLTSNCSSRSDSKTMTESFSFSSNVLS
In short: as §1

Human melanocortin (MC5) = target: T10, Human melanocortin (MC5) (Homo sapiens, UniProt P33032); experiment: Radioligand binding, human melanocortin MC5 membranes, FlashPlate, [125I]-NDP-αMSH; settings: compound at 10 μM, [125I]-NDP-αMSH
T10 construct: purchased Perkin Elmer Biosignal
T10 sequence (P33032 whole entry): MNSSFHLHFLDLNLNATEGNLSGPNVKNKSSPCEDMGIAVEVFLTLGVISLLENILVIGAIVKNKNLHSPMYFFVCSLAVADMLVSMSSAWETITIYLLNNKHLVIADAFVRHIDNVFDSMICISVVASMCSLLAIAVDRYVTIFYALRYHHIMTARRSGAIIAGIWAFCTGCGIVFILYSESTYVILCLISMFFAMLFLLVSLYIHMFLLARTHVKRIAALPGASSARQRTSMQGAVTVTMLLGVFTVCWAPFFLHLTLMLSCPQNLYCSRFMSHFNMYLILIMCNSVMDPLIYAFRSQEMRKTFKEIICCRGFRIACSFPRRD
In short: as §2

[2] = target: T11, Human melanin-concentrating hormone (MCH1) (Homo sapiens, UniProt Q99705); experiment: Radioligand binding, human melanin-concentrating hormone MCH1 membranes, FlashPlate, [125I]-S36057; settings: compound at 10 μM
T11 construct: purchased Perkin Elmer Biosignal
T11 sequence (Q99705 whole entry): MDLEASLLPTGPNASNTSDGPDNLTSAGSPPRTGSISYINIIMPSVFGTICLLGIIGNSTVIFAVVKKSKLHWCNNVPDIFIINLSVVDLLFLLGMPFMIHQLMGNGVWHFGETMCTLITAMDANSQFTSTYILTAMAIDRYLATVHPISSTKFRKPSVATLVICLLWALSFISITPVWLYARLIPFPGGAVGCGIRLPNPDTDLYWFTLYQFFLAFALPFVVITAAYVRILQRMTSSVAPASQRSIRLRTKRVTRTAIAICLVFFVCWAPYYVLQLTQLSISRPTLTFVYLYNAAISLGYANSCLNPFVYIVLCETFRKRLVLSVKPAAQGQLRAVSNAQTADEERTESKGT
In short: as §2

SMILES | A11: inhibition of radioligand binding, mouse urotensin (mUR2) (Mouse urotensin (mUR2)) | A2: inhibition of radioligand binding, human κ-opioid (KOP) (Human κ-Opioid (KOP)) | A1: inhibition of radioligand binding, human δ-opioid (DOP) (Human δ-opioid (DOP)) | A7: inhibition of radioligand binding, human μ-opioid (MOP) (Human μ-opioid (MOP)) | A9: inhibition of radioligand binding, human neuropeptide Y (NPY-Y1) [1] | A4: inhibition of radioligand binding, human melanocortin (MC4) (Human Melanocortin (MC4)) | A10: inhibition of radioligand binding, human opioid (ORL1) (Human opioid (ORL1)) | A3: inhibition of radioligand binding, human melanocortin (MC3) (Human Melanocortin (MC3)) | A8: inhibition of radioligand binding, human neurokinin (NK1) (Human neurokinin (NK1)) | A5: inhibition of radioligand binding, human melanocortin (MC5) (Human melanocortin (MC5)) | A6: inhibition of radioligand binding, human melanin-concentrating hormone (MCH1) ([2]; [125I]-S36057) | other results
NCCC(=O)NC1C(OCc2ccccc2)OC(COCc2ccc3ccccc3c2)C(O)C1OCc1ccc2ccccc2c1 (stereo not drawn) [compound 366] | − (“−” indicates less than 50% inhibition at 10 μM) | − (“−” indicates less than 50% inhibition at 10 μM) | − (“−” indicates less than 50% inhibition at 10 μM) | − (“−” indicates less than 50% inhibition at 10 μM) | − (“−” indicates less than 50% inhibition at 10 μM) | + (“+” indicates greater than 50% inhibition at 10 μM) | − (“−” indicates less than 50% inhibition at 10 μM) | + (“+” indicates greater than 50% inhibition at 10 μM) | + (“+” indicates greater than 50% inhibition at 10 μM) | + (“+” indicates greater than 50% inhibition at 10 μM) | − (“−” indicates less than 50% inhibition at 10 μM) | –
COCC1OC(OCc2ccc3ccccc3c2)C(NC(=O)CCN)C(OCc2ccccc2)C1O (stereo not drawn) [compound 231] | – | – | – | – | – | – | – | – | – | – | – | A11: inhibition of radioligand binding (Mouse urotensin (mUR2); FlashPlate): − (“−” indicates less than 50% inhibition at 10 μM); A2: inhibition of radioligand binding (Human κ-Opioid (KOP); filtration): − (“−” indicates less than 50% inhibition at 10 μM); A1: inhibition of radioligand binding (Human δ-opioid (DOP); FlashPlate): − (“−” indicates less than 50% inhibition at 10 μM); A7: inhibition of radioligand binding (Human μ-opioid (MOP); FlashPlate): − (“−” indicates less than 50% inhibition at 10 μM); A9: inhibition of radioligand binding ([1]; FlashPlate): − (“−” indicates less than 50% inhibition at 10 μM); A4: inhibition of radioligand binding (Human Melanocortin (MC4); FlashPlate): − (“−” indicates less than 50% inhibition at 10 μM); A10: inhibition of radioligand binding (Human opioid (ORL1); FlashPlate): − (“−” indicates less than 50% inhibition at 10 μM); A3: inhibition of radioligand binding (Human Melanocortin (MC3); FlashPlate): − (“−” indicates less than 50% inhibition at 10 μM); A8: inhibition of radioligand binding (Human neurokinin (NK1); filtration): + (“+” indicates greater than 50% inhibition at 10 μM); A5: inhibition of radioligand binding (Human melanocortin (MC5); FlashPlate): − (“−” indicates less than 50% inhibition at 10 μM); A6: inhibition of radioligand binding ([2]; [125I]-S36057, FlashPlate): − (“−” indicates less than 50% inhibition at 10 μM)
CO[C@H]1[C@H](O)[C@@H](COCc2ccc3ccccc3c2)OC(OCCc2ccccc2)[C@@H]1NC(=O)CCNC(=N)N (stereo partly drawn) [compound 114] | – | – | – | – | – | – | – | – | – | – | – | A11 radioligand binding, percentage inhibition (Mouse urotensin (mUR2)): − (“−” indicates less than 50% inhibition at 10 μM); A2 radioligand binding, percentage inhibition (Human κ-Opioid (KOP)): + (“+” indicates greater than 50% inhibition at 10 μM); A1 radioligand binding, percentage inhibition (Human δ-opioid (DOP)): − (“−” indicates less than 50% inhibition at 10 μM); A7 radioligand binding, percentage inhibition (Human μ-opioid (MOP)): − (“−” indicates less than 50% inhibition at 10 μM); A9 radioligand binding, percentage inhibition [1]: − (“−” indicates less than 50% inhibition at 10 μM); A4 radioligand binding, percentage inhibition (Human Melanocortin (MC4)): + (“+” indicates greater than 50% inhibition at 10 μM); A10 radioligand binding, percentage inhibition (Human opioid (ORL1)): − (“−” indicates less than 50% inhibition at 10 μM); A3 radioligand binding, percentage inhibition (Human Melanocortin (MC3)): − (“−” indicates less than 50% inhibition at 10 μM); A8 radioligand binding, percentage inhibition (Human neurokinin (NK1)): + (“+” indicates greater than 50% inhibition at 10 μM); A5 radioligand binding, percentage inhibition (Human melanocortin (MC5)): + (“+” indicates greater than 50% inhibition at 10 μM); A6 radioligand binding, percentage inhibition ([2]; [125I]-S36057): − (“−” indicates less than 50% inhibition at 10 μM)
NCCC(=O)NC1C(OCc2ccccc2)OC(COCc2ccc(Cl)cc2)C(O)C1OCc1ccc2ccccc2c1 (stereo not drawn) [compound 368] | − (“−” indicates less than 50% inhibition at 10 μM) | − (“−” indicates less than 50% inhibition at 10 μM) | − (“−” indicates less than 50% inhibition at 10 μM) | − (“−” indicates less than 50% inhibition at 10 μM) | − (“−” indicates less than 50% inhibition at 10 μM) | + (“+” indicates greater than 50% inhibition at 10 μM) | − (“−” indicates less than 50% inhibition at 10 μM) | + (“+” indicates greater than 50% inhibition at 10 μM) | + (“+” indicates greater than 50% inhibition at 10 μM) | + (“+” indicates greater than 50% inhibition at 10 μM) | − (“−” indicates less than 50% inhibition at 10 μM) | –
COC1C(O)C(COCc2ccc3ccccc3c2)OC(OCc2ccc(Cl)cc2)C1NC(=O)CNC(=N)N (stereo not drawn) [compound 350] | − (“−” indicates less than 50% inhibition at 10 μM) | − (“−” indicates less than 50% inhibition at 10 μM) | − (“−” indicates less than 50% inhibition at 10 μM) | − (“−” indicates less than 50% inhibition at 10 μM) | − (“−” indicates less than 50% inhibition at 10 μM) | − (“−” indicates less than 50% inhibition at 10 μM) | − (“−” indicates less than 50% inhibition at 10 μM) | − (“−” indicates less than 50% inhibition at 10 μM) | + (“+” indicates greater than 50% inhibition at 10 μM) | + (“+” indicates greater than 50% inhibition at 10 μM) | − (“−” indicates less than 50% inhibition at 10 μM) | –
COC[C@H]1OC(OCc2ccc3ccccc3c2)[C@H](NC(=O)CCCNC(=N)N)[C@@H](OCc2ccc3ccccc3c2)[C@@H]1O (stereo partly drawn) [compound 339] | − (“−” indicates less than 50% inhibition at 10 μM) | − (“−” indicates less than 50% inhibition at 10 μM) | − (“−” indicates less than 50% inhibition at 10 μM) | + (“+” indicates greater than 50% inhibition at 10 μM) | − (“−” indicates less than 50% inhibition at 10 μM) | + (“+” indicates greater than 50% inhibition at 10 μM) | − (“−” indicates less than 50% inhibition at 10 μM) | − (“−” indicates less than 50% inhibition at 10 μM) | + (“+” indicates greater than 50% inhibition at 10 μM) | + (“+” indicates greater than 50% inhibition at 10 μM) | + (“+” indicates greater than 50% inhibition at 10 μM) | –
